Assay results as given in the supplement of paper PMC10331698.
± gives the standard deviation of the averaged measurements.

Experiments:
Assay in all cases: level (log10 ratio to DMSO vehicle control); higher = higher biomarker level / cell amount than vehicle control
[1] = compound: O=C(Cl)C(F)(F)C(F)(F)C(F)(F)C(=O)Cl [Hexafluoroglutaryl chloride]; details: in DMSO
Method: (§1)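 BioMAP Diversity Plus panel of 12 human primary cell co-culture systems (3C, 4H, LPS, SAg, BT, BF4T, BE3C, CASM3C, HDF3CGF, KF3CT, MyoF, Mphg). Compounds were added 1 h before stimulation and left for 24 h (MyoF 48 h; BT 72 h for soluble read-outs or 6 d for IgG). Biomarkers were read by ELISA, cytotoxicity by SRB, PBMC viability and proliferation by Alamar Blue. Each well value was divided by the mean of 8 DMSO control wells on the same plate and log10 transformed; duplicate blinded samples were tested at 4 concentrations.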

[2] = compound: OCCC(F)(F)C(F)(F)C(F)(F)C(F)(F)C(F)(F)C(F)(F)C(F)(F)C(F)(F)F [8:2 Fluorotelomer alcohol]; details: 6700 nM; in DMSO
Method: as §1

[3] = compound: O=S(=O)(OCC(F)(F)F)C(F)(F)C(F)(F)C(F)(F)C(F)(F)F [2,2,2-Trifluoroethyl perfluorobutanesulfonate]; details: in DMSO
Method: as §1

[4] = compound: FC(F)(I)C(F)(F)C(F)(F)C(F)(F)C(F)(F)C(F)(F)I [1,6-Diiodoperfluorohexane]; details: 6700 nM; in DMSO
Method: as §1

[5] = compound: O=C(O)C(F)(F)C(F)(F)C(F)(F)C(F)(F)C(F)(F)C(F)(F)C(F)(F)F [Ammonium perfluorooctanoate]; details: in DMSO
Method: as §1

Perfluorooctanoic acid = compound: O=C(O)C(F)(F)C(F)(F)C(F)(F)C(F)(F)C(F)(F)C(F)(F)C(F)(F)F [Perfluorooctanoic acid]; details: in DMSO
Method: as §1

[6] = compound: C=CC(=O)OCC(F)(F)C(F)(F)C(F)(F)C(F)(F)COC(=O)C=C [1H,1H,6H,6H-Perfluorohexane-1,6-diol diacrylate]; details: 6700 nM; in DMSO
Method: as §1

[7] = compound: C=C(C)C(=O)OCC(F)(F)C(F)(F)C(F)(F)F [2,2,3,3,4,4,4-Heptafluorobutyl methacrylate]; details: in DMSO
Method: as §1

Row | Test System | level (log10) ([1]; 6700 nM) | level (log10) ([1]; 20000 nM) | level (log10) ([1]; 60000 nM) | level (log10) [2] | level (log10) ([3]; 6700 nM) | level (log10) ([3]; 20000 nM) | level (log10) ([3]; 60000 nM) | level (log10) [4] | level (log10) ([5]; 6700 nM) | level (log10) ([5]; 20000 nM) | level (log10) ([5]; 60000 nM) | level (log10) (Perfluorooctanoic acid; 6700 nM) | level (log10) (Perfluorooctanoic acid; 20000 nM) | level (log10) (Perfluorooctanoic acid; 60000 nM) | level (log10) [6] | level (log10) ([7]; 6700 nM) | level (log10) ([7]; 20000 nM) | level (log10) ([7]; 60000 nM)
1 | LPS:CD62E/E-Selectin | 0.0025 ± 0.0035 | 0.003 ± 0.02 | 0.038 ± 0.031 | 0.012 ± 0.018 | 0.0025 ± 0.019 | -0.004 ± 0.02 | -0.0795 ± 0.043 | -0.024 | -0.0015 ± 0.0092 | -0.012 ± 0.0028 | 0.0025 ± 0.013 | 0.009 ± 0.017 | -0.01 ± 0.02 | 0.029 ± 0.016 | -0.0155 ± 0.0035 | 0.001 ± 0.0071 | 0.0075 ± 0.026 | -0.0015 ± 0.0035
2 | BT:PBMC Cytotoxicity | -0.0035 ± 0.039 | -0.019 ± 0.04 | -0.022 ± 0.016 | 0.001 ± 0.038 | 0.0225 ± 0.022 | 0.0235 ± 0.056 | 0.053 ± 0.062 | 0.035 | -0.0115 ± 0.047 | -0.009 ± 0.033 | 0.0565 ± 0.015 | -0.001 ± 0.028 | 0.0565 ± 0.013 | 0.105 ± 0.033 | -0.186 ± 0.0042 | 0.0065 ± 0.035 | 0.005 ± 0.03 | 0.004 ± 0.055
3 | 3C:CD87/uPAR | -0.009 ± 0.0071 | 0.0225 ± 0.022 | 0.003 ± 0.041 | 0.008 ± 0.018 | 0.0115 ± 0.023 | -0.014 ± 0.035 | -0.139 ± 0.099 | -0.022 | -0.007 ± 0.0042 | -0.0095 ± 0.013 | -0.056 ± 0.011 | -0.0005 ± 0.0021 | -0.0035 ± 0.005 | -0.0425 ± 0.0021 | 0.0105 ± 0.029 | -0.01 ± 0.025 | -0.0125 ± 0.036 | 0.012 ± 0.0085
4 | 4H:CCL26/Eotaxin-3 | 0.016 ± 0.017 | 0.021 ± 0.027 | 0.013 ± 0.016 | 0.017 ± 0.054 | 0.0025 ± 0.064 | 0.01 ± 0.054 | -0.0095 ± 0.074 | -0.037 | -0.005 ± 0.0028 | -0.013 ± 0.0057 | -0.0385 ± 0.028 | 0.0215 ± 0.087 | -0.022 ± 0.12 | -0.0255 ± 0.14 | -0.0435 ± 0.005 | 0.005 ± 0.02 | 0.0045 ± 0.0078 | -0.0035 ± 0.022
